Experiments:
Conditions in all cases: exposure time 48 h
[1] = tested on: Caenorhabditis elegans N2; assay: AC50 for larval growth inhibition (Hill fit); higher = less potent
Procedure, shortened: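 Worms were synchronised C. elegans N2 L1 larvae, 50 per well of a 96-well plate, kept 48 h at 20°C in K-medium with killed OP50, 1% DMSO and 0.5–200 µM chemical. Size was taken as COPAS Biosort extinction, log-transformed and averaged per well, using only wells with at least 10 worms. AC50 was estimated by a constrained Hill fit with weighted genetic-algorithm regression; values outside the range are censored.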

[2] = tested on: Caenorhabditis elegans N2; assay: lowest effective concentration for larval growth inhibition (size below effect threshold); higher = less potent
Procedure, shortened: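 C. elegans N2 L1 larvae (50 per 96-well) were grown 48 h at 20°C in K-medium with killed bacteria, 1% DMSO and 0.5, 1, 5, 10, 50, 100 or 200 µM chemical. The Biosort measured per-worm extinction as size, and these were log-transformed into well means. The lowest effective concentration is the first dose where the plate-adjusted mean size drops under the 5.665 threshold and stays under it at higher doses.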

[3] = tested on: Caenorhabditis elegans N2; assay: mean nematode size ln(EXT) after 48 h, plate-adjusted (DMSO control set to 6) (ln(EXT), control-adjusted); higher = larger nematodes / less growth inhibition
Procedure, shortened: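 Each treatment used 4–6 wells of 50 synchronised C. elegans N2 L1 larvae, kept for 48 h at 20°C in K-medium with killed OP50, 1% DMSO and 0.5–200 µM chemical. Debris was excluded by a growth model after the Biosort measured per-worm extinction. Mean size per well came from natural-logged values and was plate-adjusted. That adjustment subtracted the vehicle control mean and then added 6.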

| SMILES | AC50 for larval growth inhibition [1] [µM] | lowest effective concentration [2] [µM] | mean nematode size ln(EXT) (ln) ([3]; 0.5 µM) | mean nematode size ln(EXT) (ln) ([3]; 1 µM) | mean nematode size ln(EXT) (ln) ([3]; 5 µM) | mean nematode size ln(EXT) (ln) ([3]; 10 µM) | mean nematode size ln(EXT) (ln) ([3]; 50 µM) | mean nematode size ln(EXT) (ln) ([3]; 100 µM) | mean nematode size ln(EXT) (ln) ([3]; 200 µM) |
| --- | --- | --- | --- | --- | --- | --- | --- | --- | --- |
| Clc1ccc(C(Cl)(Cl)Cl)cc1 [4-Chlorobenzotrichloride] | 112 | 50 | 5.94 | 5.93 | 5.97 | 5.9 | 5.65 | 4.93 | 3.11 |
| CC(C)=CCCC(C)CCO (stereo not given) [Citronellol] | > 200 | 200 | 5.82 | 5.87 | 5.92 | 5.78 | 5.86 | 5.73 | 5.6 |
| COCCOC[C@H](CC1(C(=O)N[C@H]2CC[C@@H](C(=O)O)CC2)CCCC1)C(=O)Oc1ccc2c(c1)CCC2 [Candoxatril] | > 200 | 200 | 5.96 | 5.83 | 5.92 | 5.81 | 5.91 | 5.85 | 5.66 |
| Cc1cc(C2CC2)nc(Nc2ccccc2)n1 [Cyprodinil] | 132 | 50 | 5.93 | 5.88 | 5.96 | 5.86 | 5.32 | 5.01 | 4 |
| CCc1cccc(CC)c1N(COC)C(=O)CCl [Alachlor] | > 200 | 200 | 6.11 | 6.07 | 6.12 | 6.1 | 5.76 | 5.74 | 5.1 |
| N#Cc1ccc(N(CC(N)=O)CC(F)(F)F)cc1C(F)(F)F | > 200 | 200 | 5.89 | 5.86 | 5.91 | 6 | 5.95 | 5.91 | 5.47 |
| CNC(=S)S [Metam-sodium hydrate] | 191 | 200 | 6.25 | 6.2 | 6.21 | 6.3 | 6.43 | 6.13 | 5.52 |
| CCCCCCCCCCCO [1-Undecanol] | 18.4 | 50 | 5.77 | 6.01 | 5.84 | 5.7 | 3.79 | 3.74 | 4.93 |
| COC(=O)N(OC)c1ccccc1COc1ccn(-c2ccc(Cl)cc2)n1 [Pyraclostrobin] | 97.6 | 50 | 6 | 5.89 | 5.83 | 5.89 | 5.21 | 4.93 | 4.43 |
| O=C(O)COc1nc(Cl)c(Cl)cc1Cl [Triclopyr] | 156 | 50 | 6.07 | 6.1 | 6.13 | 6.08 | 5.61 | 5.48 | 4.06 |
| COC(=O)c1c(C(F)F)nc(C(F)(F)F)c(C2=NCCS2)c1CC(C)C [Thiazopyr] | 73.2 | 50 | 6.05 | 5.89 | 6 | 5.98 | 4.8 | 4.4 | 3.61 |
| CCCCC(O)(Cn1cncn1)c1ccc(Cl)cc1Cl (stereo not given) [Hexaconazole] | 84.2 | 100 | 5.86 | 5.78 | 5.71 | 5.99 | 5.81 | 4.65 | 4.09 |
| CCCCC(CC)COC(=O)CC(C(=O)OCC(CC)CCCC)S(=O)(=O)O (stereo not given) [Docusate sodium] | 57.1 | 50 | 5.96 | 5.98 | 5.93 | 5.93 | 4.65 | 4.05 | 3.28 |
| CCOC(=O)COc1cc(-n2ncc(C(F)(F)F)c(C)c2=O)c(F)cc1Cl [Flufenpyr-ethyl] | > 200 | 200 | 5.85 | 5.76 | 5.8 | 5.87 | 5.88 | 5.91 | 5.57 |
| COP(=S)(OC)Oc1nc(Cl)c(Cl)cc1Cl [Chlorpyrifos-methyl] | 96.8 | 100 | 6.24 | 6.29 | 6.3 | 6.17 | 5.93 | 4.68 | 3.59 |
| c1ccc(Nc2ccccc2)cc1 [Diphenylamine] | 7.4 | 10 | 5.86 | 5.75 | 5.83 | 4.11 | 3.96 | 3.87 | 4.5 |
| O=c1[nH]c2ccc([S+]([O-])CCN3CCC(Cc4ccc(F)cc4)CC3)cc2o1 (stereo not given) [Besonprodil] | > 200 | 200 | 5.75 | 6 | 5.87 | 5.9 | 5.87 | 5.82 | 5.31 |
| O=C(N[C@H](c1ccccc1)[C@@H]1CN2CCC1CC2)c1c(Cl)ccc(C(F)(F)F)c1Cl | 171 | 10 | 5.84 | 5.83 | 5.78 | 5.64 | 5.61 | 5.09 | 4.34 |
| COc1cc(Cl)c(OC)cc1Cl [Chloroneb] | > 200 | 200 | 5.75 | 5.71 | 5.58 | 5.7 | 5.96 | 5.97 | 5.47 |
| CNC(=O)N(C)c1nnc(C(C)(C)C)s1 [Tebuthiuron] | 129 | 200 | 5.83 | 5.93 | 5.89 | 5.93 | 5.95 | 5.92 | 5.44 |
| CO[C@H]1/C=C/O[C@@]2(C)Oc3c(C)c(O)c4c(O)c(c(/C=N/N5CCN(C)CC5)c(O)c4c3C2=O)NC(=O)/C(C)=C\C=C\[C@H](C)[C@H](O)[C@@H](C)[C@@H](O)[C@@H](C)[C@H](OC(C)=O)[C@@H]1C [Rifampicin] | > 200 | 200 | 5.96 | 5.92 | 5.94 | 5.98 | 5.84 | 5.84 | 5.56 |
| CCCCCCCCCCCCCO [1-Tridecanol] | 15.4 | 5 | 5.9 | 5.76 | 5.58 | 5.34 | 3.57 | 3.5 | 3.54 |
| CNC(=O)Oc1cccc2c1OC(C)(C)O2 [Bendiocarb] | > 200 | 200 | 5.79 | 5.85 | 5.8 | 5.79 | 5.81 | 5.76 | 5.25 |

| SMILES | AC50 for larval growth inhibition [1] [µM] | lowest effective concentration [2] [µM] | mean nematode size ln(EXT) (ln) ([3]; 0.5 µM) | mean nematode size ln(EXT) (ln) ([3]; 1 µM) | mean nematode size ln(EXT) (ln) ([3]; 5 µM) | mean nematode size ln(EXT) (ln) ([3]; 10 µM) | mean nematode size ln(EXT) (ln) ([3]; 50 µM) | mean nematode size ln(EXT) (ln) ([3]; 100 µM) | mean nematode size ln(EXT) (ln) ([3]; 200 µM) |
| --- | --- | --- | --- | --- | --- | --- | --- | --- | --- |
| CC(C)(C)[C@H](O)[C@H](Cc1ccc(Cl)cc1)n1cncn1 (racemic) [Paclobutrazol] | > 200 | 50 | 5.57 | 5.77 | 5.8 | 5.97 | 5.33 | 5.58 | 4.63 |
| COP(=O)(OC)C(O)C(Cl)(Cl)Cl (stereo not given) [Trichlorfon] | 80.1 | 5 | 5.57 | 5.69 | 5.42 | 5.31 | 4.77 | 4.73 | 3.96 |
| O=P(OC(CCl)CCl)(OC(CCl)CCl)OC(CCl)CCl [Tris(1,3-dichloro-2-propyl) phosphate (TDCPP)] | 117 | 50 | 5.85 | 5.86 | 5.83 | 5.77 | 5.39 | 4.98 | 3.63 |
| COc1ccc2cc(S(=O)(=O)N[C@H](CC(=O)N[C@H](Cc3ccc(CN4[C@H](C)CCC[C@@H]4C)cc3)C(=O)N(C)C(C)C)c3ccc4c(c3)OCO4)ccc2c1 | > 200 | 100 | 5.87 | 5.8 | 5.85 | 5.73 | 5.76 | 5.43 | 4.99 |
| Clc1nc(Cl)c(Cl)c(Cl)c1Cl [Pentachloropyridine] | > 200 | 50 | 5.87 | 5.81 | 5.83 | 5.82 | 5.6 | 5.48 | 5.59 |
| Oc1ccc2c(c1)-c1ccccc1C2 [3-Hydroxyfluorene] | 97.8 | 50 | 5.81 | 5.96 | 5.84 | 5.97 | 5.6 | 4.66 | 3.77 |
| CCCCN(CCCC)SN(C)C(=O)Oc1cccc2c1OC(C)(C)C2 [Carbosulfan] | 60.2 | 1 | 5.76 | 5.51 | 5.04 | 4.86 | 5.15 | 4.44 | 4 |
| CCCCOC(=O)[C@H](C)Oc1ccc(Oc2ccc(C#N)cc2F)cc1 [Cyhalofop-butyl] | 107 | 200 | 6 | 6 | 6.12 | 6.17 | 6.08 | 5.91 | 5.22 |
| CCCCCCCCN(C)CCCCCCCC [N-Methyldioctylamine] | 182 | 200 | 5.78 | 5.86 | 5.87 | 5.75 | 5.78 | 5.83 | 4.13 |
| O=C=NCCCCCCN=C=O [1,6-Diisocyanatohexane] | > 200 | 200 | 5.82 | 5.86 | 5.84 | 5.84 | 5.94 | 5.93 | 5.66 |
| CCC(C)(c1ccc(O)cc1)c1ccc(O)cc1 [Bisphenol B] | 87.1 | 100 | 5.9 | 5.81 | 5.9 | 5.74 | 5.87 | 5.14 | 4.74 |
| O=C(CCCN1CCC(O)(c2ccc(Cl)cc2)CC1)c1ccc(F)cc1 [Haloperidol] | 43.3 | 10 | 5.95 | 5.85 | 5.93 | 5.66 | 4.99 | 4.71 | 4.44 |
| CC(C)(OO)c1ccccc1 [Cumene hydroperoxide] | > 200 | 200 | 5.92 | 5.91 | 5.94 | 5.75 | 5.88 | 5.75 | 5.62 |
| CCOC(=O)CC(SP(=S)(OC)OC)C(=O)OCC (stereo not given) [Malathion] | > 200 | 100 | 5.93 | 6.01 | 5.79 | 5.98 | 5.8 | 5.59 | 5.28 |
| CC(C)N1C(=O)N(c2ccccc2)CS/C1=N\C(C)(C)C [Buprofezin] | 181 | 200 | 5.88 | 5.75 | 5.68 | 5.8 | 5.93 | 6.04 | 3.51 |
| NC(=O)Cn1c(=O)cc(CCN2CCN(c3nccc4sccc34)CC2)c2ccc(F)cc21 [Trelanserin] | > 200 | 200 | 5.9 | 5.78 | 5.75 | 5.81 | 5.71 | 5.7 | 5.54 |
| CNC(=O)Oc1cccc2c1OC(C)(C)C2 [Carbofuran] | 198 | 100 | 5.92 | 5.92 | 5.84 | 5.89 | 5.75 | 5.39 | 4.54 |
| CC1(C)CC/C(=C\c2ccc(Cl)cc2)C1(O)Cn1cncn1 (stereo not given) [Triticonazole] | 120 | 200 | 5.82 | 5.72 | 6.07 | 5.84 | 5.91 | 5.68 | 5.25 |
| O=C(O)CN(CC(=O)O)CC(=O)O [Nitrilotriacetic acid] | > 200 | 200 | 5.78 | 5.83 | 5.87 | 5.88 | 5.91 | 5.88 | 5.21 |
| Cc1ccc(/N=C/N(C)/C=N/c2ccc(C)cc2C)c(C)c1 [Amitraz] | 200 | 200 | 6.02 | 5.93 | 6.14 | 5.97 | 5.95 | 6.57 | 4.72 |
| FC(F)C(F)(F)OCC(Cn1cncn1)c1ccc(Cl)cc1Cl (stereo not given) [Tetraconazole] | 48.5 | 10 | 5.81 | 5.97 | 5.98 | 5.65 | 4.91 | 4.36 | 4.07 |
| C[Si](Cn1cncn1)(c1ccc(F)cc1)c1ccc(F)cc1 [Flusilazole] | 43.2 | 5 | 5.73 | 5.67 | 5.55 | 5.53 | 4.57 | 3.63 | 3.47 |
